Data from patent publication US9951372B2, “Compounds and methods for assaying redox state of metabolically active cells and methods for measuring NAD(P)/NAD(P)H” (PROMEGA CORPORATION, priority 2011, dated 2018).

Test system: NAD biosynthesis pathway
Assay: Monitoring inhibition of NAD biosynthesis
Type: cell-based
Details: 48 hours of treatment; several cell lines; detection with PBI 4312
Experimental: Cells were plated at 7.5×10^3 cells/12.5 ul into wells of a 384-well plates. The cells were plated in full media containing 10% FBS (PC3 and A549 cells in F12K; Hela, MD-AMB and HET 116 cells in DMEM without pyruvate; HepG2 cells in E-MEM and Jurkat cells in RPMI). […] The cells were placed in a CO2 dependent incubator. […] Promega Cat. No V8920) was added to each well. The reaction was incubated for 30 minutes at room temperature, and luminescence measured using a Tecan plate luminometer. The data are shown as % inhibition compared to control (no inhibitor) and are plotted using the sigmoidal dose-response, variable slope model supplied with SigmaPlot 11.0 software. A signal-to-background ratio (S/B) calculated between control cells and cells treated with the highest FK866 concentration.

SMILES: O=C(/C=C/c1cccnc1)NCCCCC1CCN(C(=O)c2ccccc2)CC1 [FK866]
- effect on cellular NAD levels: decrease in NAD levels
